Values joined by “and” are separate entries in the source; they are usually repeats but may differ in a detail not shown here. Equal entries are not always repeated.
Molecular target: T1, human TAS2R4 (Homo sapiens, UniProt Q9NYW5)
T1 construct: expressed in transfected cells; host or cells: HEK293T-Gα16gust44
T1 sequence (Q9NYW5 1-299): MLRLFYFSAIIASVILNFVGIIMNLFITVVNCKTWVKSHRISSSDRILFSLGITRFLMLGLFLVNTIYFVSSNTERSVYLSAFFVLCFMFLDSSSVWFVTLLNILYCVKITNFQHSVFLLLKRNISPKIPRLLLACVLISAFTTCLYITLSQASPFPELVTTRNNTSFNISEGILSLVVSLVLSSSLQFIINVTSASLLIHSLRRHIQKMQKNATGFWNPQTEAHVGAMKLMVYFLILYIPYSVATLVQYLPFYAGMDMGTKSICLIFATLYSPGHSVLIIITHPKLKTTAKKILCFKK
Assay: Calcium imaging assay (FLIPR), HEK293T-Gα16gust44 cells transfected with human TAS2R4
Assay type: cell-based
Summary of the method: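 Read-out is Fluo-4 fluorescence change (ΔF/F) after automated application of bile acids (DMSO stocks) to transiently transfected cells. Values are corrected for empty-vector cells and normalized to buffer. Dose-response from three independent experiments in duplicate; threshold concentration set at p < 0.01 versus mock.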

SMILES: C[C@H](CCC(=O)O)[C@H]1CC[C@H]2[C@@H]3CC[C@@H]4C[C@H](O)CC[C@]4(C)[C@H]3C[C@H](O)[C@]12C [Deoxycholic Acid, deoxycholic acid]
- Efficacy = maximal amplitude (ΔF/F) (TAS2R4, bile acids, mean): 0.08533
- Efficacy (maximal amplitude ΔF/F), individual data points (TAS2R4, bile acids, single replicates, listed as DCA): 0.07628 and 0.1105 and 0.06917
- RLU, fluorescence trace (Time (s) 0): 0 RLU
- RLU, fluorescence trace (Time (s) 2): -24.43 RLU
- RLU, fluorescence trace (Time (s) 4): -23.5542 RLU
- RLU, fluorescence trace (Time (s) 6): -22.8766 RLU
- RLU, fluorescence trace (Time (s) 8): -1.905 RLU
- RLU, fluorescence trace (Time (s) 12): -21.8648 RLU
- RLU, fluorescence trace (Time (s) 14): -18.1346 RLU
- RLU, fluorescence trace (Time (s) 16): -52.8215 RLU
- RLU, fluorescence trace (Time (s) 18): -24.2064 RLU
- RLU, fluorescence trace (Time (s) 18.766 (TCA, TLCA: 18.782)): -22.8202 RLU
- RLU, fluorescence trace (Time (s) 20.781 (TCA, TLCA: 20.782)): -95.6069 RLU
- RLU, fluorescence trace (Time (s) 22.781 (TCA, TLCA: 22.782)): -71.6568 RLU
- RLU, fluorescence trace (Time (s) 24.781 (TCA, TLCA: 24.782)): -40.8819 RLU
- RLU, fluorescence trace (Time (s) 26.781 (TCA, TLCA: 26.782)): -9.811 RLU
- RLU, fluorescence trace (Time (s) 28.781 (TCA, TLCA: 28.782)): 38.1772 RLU
- RLU, fluorescence trace (Time (s) 30.781 (TCA, TLCA: 30.782)): 89.531 RLU
- RLU, fluorescence trace (Time (s) 32.781 (TCA, TLCA: 32.782)): 109 RLU
- RLU, fluorescence trace (Time (s) 34.781 (TCA, TLCA: 34.782)): 155.799 RLU
- RLU, fluorescence trace (Time (s) 36.781 (TCA, TLCA: 36.782)): 198.766 RLU
- RLU, fluorescence trace (Time (s) 38.781 (TCA, TLCA: 38.782)): 215 RLU
- RLU, fluorescence trace (Time (s) 40.781 (TCA, TLCA: 40.782)): 245.601 RLU
- RLU, fluorescence trace (Time (s) 42.781 (TCA, TLCA: 42.782)): 273.234 RLU
- RLU, fluorescence trace (Time (s) 44.781 (TCA, TLCA: 44.782)): 289.793 RLU
- RLU, fluorescence trace (Time (s) 46.781 (TCA, TLCA: 46.782)): 293.169 RLU
- RLU, fluorescence trace (Time (s) 48.781 (TCA, TLCA: 48.782)): 315.257 RLU
- RLU, fluorescence trace (Time (s) 50.781 (TCA, TLCA: 50.782)): 327.06 RLU
- RLU, fluorescence trace (Time (s) 52.781 (TCA, TLCA: 52.782)): 336.965 RLU
- RLU, fluorescence trace (Time (s) 54.781 (TCA, TLCA: 54.782)): 356.774 RLU
- RLU, fluorescence trace (Time (s) 56.781 (TCA, TLCA: 56.782)): 358.021 RLU
- RLU, fluorescence trace (Time (s) 58.781 (TCA, TLCA: 58.782)): 377.086 RLU
- RLU, fluorescence trace (Time (s) 60.781 (TCA, TLCA: 60.782)): 371.413 RLU
- RLU, fluorescence trace (Time (s) 62.781 (TCA, TLCA: 62.782)): 354.175 RLU
- RLU, fluorescence trace (Time (s) 64.781 (TCA, TLCA: 64.782)): 367.028 RLU
- RLU, fluorescence trace (Time (s) 66.781 (TCA, TLCA: 66.782)): 369.018 RLU
- RLU, fluorescence trace (Time (s) 68.781 (TCA, TLCA: 68.782)): 401.767 RLU
- RLU, fluorescence trace (Time (s) 70.781 (TCA, TLCA: 70.782)): 369.499 RLU
- RLU, fluorescence trace (Time (s) 72.781 (TCA, TLCA: 72.782)): 371.417 RLU
- RLU, fluorescence trace (Time (s) 74.781 (TCA, TLCA: 74.782)): 395.575 RLU
- RLU, fluorescence trace (Time (s) 76.781 (TCA, TLCA: 76.782)): 372.212 RLU
- RLU, fluorescence trace (Time (s) 78.781 (TCA, TLCA: 78.782)): 381.123 RLU
- RLU, fluorescence trace (Time (s) 80.781 (TCA, TLCA: 80.782)): 377.573 RLU
- RLU, fluorescence trace (Time (s) 82.781 (TCA, TLCA: 82.782)): 366.542 RLU
- RLU, fluorescence trace (Time (s) 84.781 (TCA, TLCA: 84.782)): 344.412 RLU
- RLU, fluorescence trace (Time (s) 86.781 (TCA, TLCA: 86.782)): 365.264 RLU
- RLU, fluorescence trace (Time (s) 88.781 (TCA, TLCA: 88.782)): 345.388 RLU
- RLU, fluorescence trace (Time (s) 90.781 (TCA, TLCA: 90.782)): 349.245 RLU
- RLU, fluorescence trace (Time (s) 92.781 (TCA, TLCA: 92.782)): 348.005 RLU
- RLU, fluorescence trace (Time (s) 94.781 (TCA, TLCA: 94.782)): 360.114 RLU
- RLU, fluorescence trace (Time (s) 96.781 (TCA, TLCA: 96.782)): 353.364 RLU
- RLU, fluorescence trace (Time (s) 98.781 (TCA, TLCA: 98.782)): 356.212 RLU
- RLU, fluorescence trace (Time (s) 100.781 (TCA, TLCA: 100.782)): 338.006 RLU
- RLU, fluorescence trace (Time (s) 102.781 (TCA, TLCA: 102.782)): 349.375 RLU
- RLU, fluorescence trace (Time (s) 104.781 (TCA, TLCA: 104.782)): 357.725 RLU
- RLU, fluorescence trace (Time (s) 106.781 (TCA, TLCA: 106.782)): 339.949 RLU
- RLU, fluorescence trace (Time (s) 108.781 (TCA, TLCA: 108.782)): 333.434 RLU
- RLU, fluorescence trace (Time (s) 110.781 (TCA, TLCA: 110.782)): 336.947 RLU
- RLU, fluorescence trace (Time (s) 112.781 (TCA, TLCA: 112.782)): 335.627 RLU
- RLU, fluorescence trace (Time (s) 114.781 (TCA, TLCA: 114.782)): 349.641 RLU
- RLU, fluorescence trace (Time (s) 116.781 (TCA, TLCA: 116.782)): 340.242 RLU
- RLU, fluorescence trace (Time (s) 118.781 (TCA, TLCA: 118.782)): 328.36 RLU
- RLU, fluorescence trace (Time (s) 120.781 (TCA, TLCA: 120.782)): 338.913 RLU
- RLU, fluorescence trace (Time (s) 122.781 (TCA, TLCA: 122.782)): 364.894 RLU
- RLU, fluorescence trace (Time (s) 124.781 (TCA, TLCA: 124.782)): 333.589 RLU
- RLU, fluorescence trace (Time (s) 126.781 (TCA, TLCA: 126.782)): 335.132 RLU
- RLU, fluorescence trace (Time (s) 128.781 (TCA, TLCA: 128.782)): 319.908 RLU
- RLU, fluorescence trace (Time (s) 130.781 (TCA, TLCA: 130.782)): 356.29 RLU
- RLU, fluorescence trace (Time (s) 132.781 (TCA, TLCA: 132.782)): 335.417 RLU
- RLU, fluorescence trace (Time (s) 134.781 (TCA, TLCA: 134.782)): 327.442 RLU
- RLU, fluorescence trace (Time (s) 136.781 (TCA, TLCA: 136.782)): 323.134 RLU
- RLU, fluorescence trace (Time (s) 137.547): 342.47 RLU
- RLU, fluorescence trace (Time (s) 143.547): 333.389 RLU
- RLU, fluorescence trace (Time (s) 149.547): 328.288 RLU
- RLU, fluorescence trace (Time (s) 155.547): 355.055 RLU
- RLU, fluorescence trace (Time (s) 161.547): 338.156 RLU
- RLU, fluorescence trace (Time (s) 167.547): 335.87 RLU
- RLU, fluorescence trace (Time (s) 173.547): 351.387 RLU
- RLU, fluorescence trace (Time (s) 179.547): 368.586 RLU
- RLU, fluorescence trace (Time (s) 185.547): 363.986 RLU
- RLU, fluorescence trace (Time (s) 191.547): 372.236 RLU
- RLU, fluorescence trace (Time (s) 197.547): 331.461 RLU
- RLU, fluorescence trace (Time (s) 203.547): 345.855 RLU
- RLU, fluorescence trace (Time (s) 209.547): 348.008 RLU
- RLU, fluorescence trace (Time (s) 215.547): 318.834 RLU
- RLU, fluorescence trace (Time (s) 221.547): 327.885 RLU
- RLU, fluorescence trace (Time (s) 227.547): 345.298 RLU
- RLU, fluorescence trace (Time (s) 233.547): 352.884 RLU
- RLU, fluorescence trace (Time (s) 239.547): 389.33 RLU
- RLU, fluorescence trace (Time (s) 245.547): 399.649 RLU
- RLU, fluorescence trace (Time (s) 293.547): 411.409 RLU
- RLU, fluorescence trace (Time (s) 299.547): 406.435 RLU
- RLU, fluorescence trace (Time (s) 305.547): 380.1 RLU
- RLU, fluorescence trace (Time (s) 311.547): 396.715 RLU
- RLU, fluorescence trace (Time (s) 317.547): 351.706 RLU
- RLU, fluorescence trace (Time (s) 323.547): 391.589 RLU
- RLU, fluorescence trace (Time (s) 329.547): 362.796 RLU
- RLU, fluorescence trace (Time (s) 335.547): 360.917 RLU
- RLU, fluorescence trace (Time (s) 341.547): 350.479 RLU
- RLU, fluorescence trace (Time (s) 347.547): 349.654 RLU
- RLU, fluorescence trace (Time (s) 353.547): 326.897 RLU
- RLU, fluorescence trace (Time (s) 359.547): 343.746 RLU
- Activation threshold concentration TAS2R4 (lowest concentration with significantly increased fluorescence vs empty vector (p < 0.01)): 3 µM
